Laboratory results published in US4637902A, “Mixed anhydrides of carbamic and hydroxamic acids” (Fuji Photo Film Co., Ltd., priority 1983, dated 1987).

Test: Measurement of Decomposition Rate of Base Precursor (gelatin film on triacetyl cellulose, absorbance change)
Type: physicochemical
Settings: for Half-Life Period t1/2: 140° C.; for K at 140° C. (× 10^2), first-order reaction rate constant: head multiplier × 10^2
Description: Measurement of Decomposition Rate of Base Precursor About 400 mg of the base precursor of the present invention was dissolved in 25 ml of methanol. Separately, 400 mg of gelatin was dissolved in 5 ml of water with heating. After cooling, 5 ml of the above-described methanol solution was added thereto and the mixture well mixed. The resulting mixture solution was uniformly coated on a triacetyl cellulose support and dried to prepare samples. The absorbance of each of the samples at λ max (around 300 nm) was previously measured, then the sample was heated on a hot plate at a definite temperature. The change in absorbance versus time was plotted to calculate first-order reaction rate. Several examples of the reaction rate constants measured by the above-described method are given below.

Half-Life Period t1/2 | Compound | K at 140° C. (× 10^2), first-order reaction rate constant
18.7 s | CCN(CC)C(=O)ONC(=O)c1ccccc1O [Base Precursor No. (37)] | 3.7
7.7 s | CCCCN(CCCC)C(=O)ONC(=O)c1ccccc1O [Base Precursor No. (38), Salicylhydroxamic Acid N,N-Dibutylcarbamate] | 9.0

Compound | Half-Life Period t1/2 | K at 140° C. (× 10^2), first-order reaction rate constant
CN(C)C(=O)ONC(=O)c1ccccc1O [Base Precursor No. (1), Salicylhydroxamic Acid, N,N-Dimethylcarbamate] | 10.3 s | 6.7
